Test results taken from patent US11124497B1, “Inhibitors of cysteine proteases and methods of use thereof” (priority 2020, dated 2021).
pEC50: −log10 of the molar value.

The compounds below were run on HCoV 229E (assay: HCoV 229E cytopathic effect (CPE) assay). Settings: CellTiter Glo, read-out: 229 ECPE EC50.
Assay type: cell-based, Human Coronavirus (HCov) 229E
Description: Compounds were assayed using standard methods against multiple coronaviral strains, including HCoV 229E and OC43 strains. The antiviral activity of compounds was calculated based on the protection of the virus-induced CPE at each concentration normalized by the virus control.
Cytopathic effect (CPE) was measured by CellTiter Glo following the manufacturer's manual. The antiviral activity of compounds was calculated based on the protection of the virus-induced CPE at each concentration normalized by the virus control.
With COc1cccc2[nH]c(C(=O)N[C@@H](CC(C)C)C(=O)N[C@@H](C[C@@H]3CCNC3=O)C(O)C#N)cc12 (single isomer, unassigned) [135 (Isomer 2)] the pEC50 was over 4.66.
With CC(C)C[C@H](NC(=O)c1nc2cccc(Cl)c2[nH]1)C(=O)N[C@H](C#N)C[C@@H]1CCNC1=O [Compound 127] the pEC50 was 5.00 to 5.70.
CC(C)C[C@H](NC(=O)c1nc2cccc(Cl)c2[nH]1)C(=O)N[C@H](C#N)C[C@@H]1CCNC1=O [Compound 133] was tested, and the pEC50 was over 4.66.

Same assay, conditions: unidentified human coronavirus, CellTiter Glo, read-out: 229 ECPE EC50
With COc1cccc2[nH]c(C(=O)N[C@@H](CC(C)C)C(=O)N[C@@H](C[C@@H]3CCNC3=O)C(O)C#N)cc12 (single isomer, unassigned) [134 (Isomer 1)] the pEC50 was over 4.66.
COc1cccc2[nH]c(C(=O)N[C@@H](CC(C)C)C(=O)N[C@@H](C[C@@H]3CCNC3=O)C(C#N)NC(C)(C)C)cc12 (single isomer, unassigned) [323 (Isomer 1)] was tested, and the pEC50 was over 4.66.
Work on COc1cccc2[nH]c(C(=O)N3CC4(CCCCC4)CC3C(=O)N[C@H](C#N)C[C@@H]3CCNC3=O)cc12 (single isomer, unassigned) [389A (Isomer 1)] yielded a pEC50 of over 4.66.
COc1cccc2[nH]c(C(=O)N[C@@H](CC(C)C)C(=O)N[C@@H](C[C@@H]3CCNC3=O)C(C#N)NCc3ccccc3)cc12 (single isomer, unassigned) [507 (Isomer 1.1)] showed a pEC50 of over 4.66.
For CCNC(C#N)[C@H](C[C@@H]1CCNC1=O)NC(=O)[C@H](CC(C)C)NC(=O)c1cc2c(OC)cccc2[nH]1 (single isomer, unassigned) [511 (Isomer 1)], the pEC50 was over 4.66.
COc1cccc2[nH]c(C(=O)N3CC4(CCCCC4)CC3C(=O)N[C@H](C#N)C[C@@H]3CCCNC3=O)cc12 (single isomer, unassigned) [681 (Isomer 1)] was tested, and the pEC50 was over 4.66.
N#C[C@H](C[C@@H]1CCCNC1=O)NC(=O)C1CC2(CCC2)CN1C(=O)c1cc2cccc(Cl)c2[nH]1 (single isomer, unassigned) [729 (Isomer 1)] gave a pEC50 of over 4.66.
CC(C)C[C@H](NC(=O)c1nc2ccccc2[nH]1)C(=O)N[C@H](C#N)C[C@@H]1CCNC1=O [Compound 103, N-[(1S)-1-[[(1S)-1-cyano-2-[(3S)-2-oxopyrrolidin-3-yl]ethyl]carbamoyl]-3-methyl-butyl]-1H-benzimidazole-2-carboxamide] gave a pEC50 of over 4.66.
Work on CC(C)C[C@H](NC(=O)c1nc2ncccc2[nH]1)C(=O)N[C@H](C#N)C[C@@H]1CCNC1=O [Compound 131, N-[(1S)-1-[[(1S)-1-cyano-2-[(3S)-2-oxopyrrolidin-3-yl]ethyl]carbamoyl]-3-methyl-butyl]-1H-imidazo[4,5-b]pyridine-2-carboxamide] yielded a pEC50 of 5.00 to 5.70.
Work on COc1cccc2[nH]c(C(=O)NC(CC(C)C)C(=O)NC(CC3CCNC3=O)C(O)C#N)cc12 (stereo not drawn) [Compound 134] yielded a pEC50 of over 4.66.
Compound COc1cccc2[nH]c(C(=O)N[C@@H](CC(C)C)C(=O)N[C@H](/C=C/S(C)(=O)=O)C[C@@H]3CCNC3=O)cc12 [Compound 136, 4-methoxy-N-[(1S)-3-methyl-1-[[(E,1S)-3-methylsulfonyl-1-[[(3S)-2-oxopyrrolidin-3-yl]methyl]allyl]carbamoyl]butyl]-1H-indole-2-carboxamide] has a pEC50 of under 4.52.
For COc1cccc2[nH]c(C(=O)N3C[C@H](c4ccccc4)C[C@H]3C(=O)N[C@H](C#N)C[C@@H]3CCNC3=O)cc12 [Compound 171], the pEC50 was over 4.66.
With COc1cccc2[nH]c(C(=O)N[C@@H](CC3CCCCC3)C(=O)N[C@H](C#N)C[C@@H]3CCNC3=O)cc12 [Compound 185, N-[(1S)-2-[[(1S)-1-cyano-2-[(3S)-2-oxopyrrolidin-3-yl]ethyl]amino]-1-(cyclohexylmethyl)-2-oxo-ethyl]-4-methoxy-1H-indole-2-carboxamide] the pEC50 was over 4.66.
COc1cccc2[nH]c(C(=O)N3C[C@H]4C([C@H]3C(=O)N[C@H](C#N)C[C@@H]3CCNC3=O)C4(C)C)cc12 (stereo partly drawn) [Compound 197, (2S,5S)—N-[(1S)-1-cyano-2-[(3S)-2-oxopyrrolidin-3-yl]ethyl]-3-(4-methoxy-1H-indole-2-carbonyl)-6,6-dimethyl-3-azabicyclo[3.1.0]hexane-2-carboxamide] gave a pEC50 of over 4.66.
COc1cccc2[nH]c(C(=O)N[C@@H](CC3CC3)C(=O)N[C@H](C#N)C[C@@H]3CCNC3=O)cc12 [Compound 205, N—((S)-1-(((S)-1-cyano-2-((S)-2-oxopyrrolidin-3-yl)ethyl)amino)-3-cyclopropyl-1-oxopropan-2-yl)-4-methoxy-1H-indole-2-carboxamide] gave a pEC50 of over 4.66.
With COc1cccc2[nH]c(C(=O)N[C@@H](CC(C)C)C(=O)N[C@@H](C[C@@H]3CCNC3=O)C(C#N)N[C@@H](C)c3ccccc3)cc12 (stereo partly drawn) [Compound 329] the pEC50 was over 4.66.
Work on COc1cccc2[nH]c(C(=O)N3C[C@H](c4ccccc4)CC3C(=O)N[C@H](C=O)C[C@@H]3CCNC3=O)cc12 (stereo partly drawn) [Compound 344A] yielded a pEC50 of over 4.66.
With COc1cccc2[nH]c(C(=O)N[C@@H](CC(C)C)C(=O)N[C@@H](C[C@@H]3CCNC3=O)C(N)C#N)cc12 (stereo partly drawn) [Compound 344C, N-[(1S)-1-[[(1S)-2-amino-2-cyano-1-[[(3S)-2-oxopyrrolidin-3-yl]methyl]ethyl]carbamoyl]-3-methyl-butyl]-4-methoxy-1H-indole-2-carboxamide] the pEC50 was over 4.66.
In the case of COc1cccc2[nH]c(C(=O)N3C[C@H](c4ccccc4)C[C@H]3C(=O)N[C@@H](C[C@@H]3CCNC3=O)C(O)C#N)cc12 (stereo partly drawn) [Compound 345], the pEC50 was over 4.66.
Work on CC(C)C[C@H](NC(=O)c1cc2c(OC(F)(F)F)cccc2[nH]1)C(=O)N[C@H](C#N)C[C@@H]1CCNC1=O [Compound 361] yielded a pEC50 of over 4.66.
For CC(C)C[C@H](NC(=O)c1nc2c(OC(F)(F)F)cccc2[nH]1)C(=O)N[C@H](C#N)C[C@@H]1CCNC1=O [Compound 363], the pEC50 was over 4.66.
Work on N#C[C@H](C[C@@H]1CCNC1=O)NC(=O)[C@H](CC1CC1)NC(=O)c1cc2c(C3CC3)cccc2[nH]1 [Compound 375A] yielded a pEC50 of over 4.66.
Work on CCOc1cccc2[nH]c(C(=O)N[C@@H](CC(C)C)C(=O)N[C@H](C#N)C[C@@H]3CCNC3=O)cc12 [Compound 377] yielded a pEC50 of over 4.66.
Work on COc1cccc2[nH]c(C(=O)N3C[C@@H]4CCC[C@@H]4[C@H]3C(=O)N[C@H](C#N)C[C@@H]3CCNC3=O)cc12 [Compound 393] yielded a pEC50 of over 4.66.
Work on COc1cccc2[nH]c(C(=O)N3CC4(CC4)C[C@H]3C(=O)N[C@H](C#N)C[C@@H]3CCNC3=O)cc12 [Compound 397] yielded a pEC50 of over 4.66.
For COc1cccc2[nH]c(C(=O)N3CC4(CCCC4)C[C@H]3C(=O)N[C@H](C#N)C[C@@H]3CCNC3=O)cc12 [Compound 401, (S)—N—((S)-1-cyano-2-((S)-2-oxopyrrolidin-3-yl)ethyl)-2-(4-methoxy-1H-indole-2-carbonyl)-2-azaspiro[4.4]nonane-3-carboxamide], the pEC50 was over 4.66.
COc1cccc2[nH]c(C(=O)N[C@@H](CC(C)(C)C)C(=O)N[C@H](C#N)C[C@@H]3CCNC3=O)cc12 [Compound 405, N-[(1S)-1-[[(1S)-1-cyano-2-[(3S)-2-oxopyrrolidin-3-yl]ethyl]carbamoyl]-3,3-dimethyl-butyl]-4-methoxy-1H-indole-2-carboxamide] gave a pEC50 of over 4.66.
Compound COc1cccc2[nH]c(C(=O)N[C@@H](CC(C)C)C(=O)NC(C#N)c3cccnc3)cc12 (stereo partly drawn) [Compound 433] has a pEC50 of 5.00 to 5.70.
Compound COc1cccc2[nH]c(C(=O)N[C@@H](CC3CC3)C(=O)N[C@H](C#N)C[C@@H]3CCCNC3=O)cc12 [Compound 491, N-[(1S)-2-[[(1S)-1-cyano-2-[(3S)-2-oxo-3-piperidyl]ethyl]amino]-1-(cyclopropylmethyl)-2-oxo-ethyl]-4-methoxy-1H-indole-2-carboxamide] has a pEC50 of over 4.66.
For CCNC(C#N)[C@H](C[C@@H]1CCNC1=O)NC(=O)[C@H](CC(C)C)NC(=O)c1cc2c(OC)cccc2[nH]1 (stereo partly drawn) [Compound 511, N-[(1S)-1-[[(1S)-2-cyano-2-(ethylamino)-1-[[(3S)-2-oxopyrrolidin-3-yl]methyl]ethyl]carbamoyl]-3-methyl-butyl]-4-methoxy-1H-indole-2-carboxamide], the pEC50 was over 4.66.
Compound COc1cccc2[nH]c(C(=O)N3C[C@H](SC)C[C@H]3C(=O)N[C@H](C#N)C[C@@H]3CCNC3=O)cc12 [Compound 551] has a pEC50 of 5.00 to 5.70.
N#C[C@H](C[C@@H]1CCCNC1=O)NC(=O)[C@H](CC1CC1)NC(=O)c1cc2ccc(Cl)cc2[nH]1 [Compound 635, 6-Chloro-N-[(1S)-2-[[(1S)-1-cyano-2-[(3S)-2-oxo-3-piperidyl]ethyl]amino]-1-(cyclopropylmethyl)-2-oxo-ethyl]-1H-indole-2-carboxamide] was tested, and the pEC50 was over 4.66.
With N#C[C@H](C[C@@H]1CCCNC1=O)NC(=O)[C@H](CC1CC1)NC(=O)c1nc2c(Cl)ccc(Cl)c2[nH]1 [Compound 637, 4,7-dichloro-N-[(1S)-2-[[(1S)-1-cyano-2-[(3S)-2-oxo-3-piperidyl]ethyl]amino]-1-(cyclopropylmethyl)-2-oxo-ethyl]-1H-benzimidazole-2-carboxamide] the pEC50 was over 4.66.
In the case of N#C[C@H](C[C@@H]1CCNC1=O)NC(=O)[C@H](CC1CC1)NC(=O)c1cc2c([nH]1)CCCC2 [Compound 711], the pEC50 was over 4.66.
Compound N#C[C@H](C[C@@H]1CCCNC1=O)NC(=O)[C@H](CC1CC1)NC(=O)c1cc2c(Cl)nccc2[nH]1 [Compound 715] has a pEC50 of over 4.66.
N#C[C@H](C[C@@H]1CCCNC1=O)NC(=O)[C@H](CC1CC1)NC(=O)c1cc2cc(Cl)ncc2[nH]1 [Compound 717] was tested, and the pEC50 was over 4.66.
Work on CC(C)(C)C[C@H](NC(=O)c1cc2cccc(Cl)c2[nH]1)C(=O)N[C@H](C#N)C[C@@H]1CCCNC1=O [Compound 721, 7-chloro-N—((S)-1-(((S)-1-cyano-2-((S)-2-oxopiperidin-3-yl)ethyl)amino)-4,4-dimethyl-1-oxopentan-2-yl)-1H-indole-2-carboxamide] yielded a pEC50 of over 4.66.
CC(C)(C)C[C@H](NC(=O)c1cc2ccc(Cl)c(Cl)c2[nH]1)C(=O)N[C@H](C#N)C[C@@H]1CCCNC1=O [Compound 725] was tested, and the pEC50 was over 4.66.
CC(C)(C)C[C@H](NC(=O)c1cc2c(Cl)ccc(Cl)c2[nH]1)C(=O)N[C@H](C#N)C[C@@H]1CCCNC1=O [Compound 735] gave a pEC50 of over 4.66.
